Marks after values point to notes of the source that are not given here.
Assays:
clinical = settings: human, plasma, po
[1] = test system: healthy female volunteers; assay: Phase 1 study: antiemetic effect of oral olanzapine doses after apomorphine challenge; assay type: in vivo, human; settings: for Nausea Score 1-120 min. / Nausea Score 1-120 min. (severity in words) / Retching (incidence) / Vomiting (incidence): apomorphine challenge day 8; for Nausea Score 1-120 min.: 1=no nausea, 10=severe nausea
Procedure: Twenty-four healthy female volunteers were enrolled. Four active-treatment groups and a cohort of placebo-treated subjects were evaluated.
Subjects were administered study drug once daily for 8 days. During this period, subjects maintained a study diary of their side effects. The subject diary was used to collect on a daily basis any adverse events including an assessment of the presence and/or intensity of sedation on a numeric scale where 1=no sedation and 10=excessive sedation.
On the 8th day, subjects were administered apomorphine at a dose of 0.05 mg/kg and assessed over 6 hours. During this period, subjects were asked to record episodes of nausea on a numeric scale every 15 minutes for the duration of assessment. The intensity of nausea was captured using a 1-10 rating scale where 1=no nausea and 10=severe nausea. Emesis intensity was also captured where 1=no emesis and 10=severe emesis. Episodes of retching or emesis were collected and measured for the absolute number of retches or vomits during the collection period and documented for the time of the specific event following the administration of the apomorphine.

[2] = oral, statistical integration of nausea scores and incidence of retching and vomiting

Cc1cc2c(s1)Nc1ccccc1N=C2N1CCN(C)CC1 [olanzapine, 2-methyl-10-(4-methyl-1-piperazinyl)-4H-thieno-[2,3-b][1.5]benzo-diazepine]
Cmax at 1 day (clinical; 4 mg): 4 to 6 ng/mL | Cmax at 1 day (clinical; 6 mg): 6 to 9 ng/mL | Nausea severity scores 0-120 min following apomorphine challenge, versus placebo ([1]; 2 mg and 8 mg doses): not significantly different than placebo | Nausea severity scores 0-120 min following apomorphine challenge, versus placebo ([1]; 4 mg and 6 mg steady state doses, p<0.05): significantly different than placebo | maximum intensity of nausea, compared between doses ([1]; between the 4 mg, 6 mg and 8 mg dose): no different | Nausea Score 1-120 min. ([1]; oral 2 mg a day for 8 days): 6** | Nausea Score 1-120 min. (severity in words) ([1]; oral 2 mg a day): Moderate | Retching (incidence) ([1]; oral 2 mg a day): 40% | Vomiting (incidence) ([1]; oral 2 mg a day): 40% | Nausea Score 1-120 min. ([1]; oral 4 mg a day for 8 days): 3.4 # | Nausea Score 1-120 min. (severity in words) ([1]; oral 4 mg a day): Mild | Retching (incidence) ([1]; oral 4 mg a day): 0% | Vomiting (incidence) ([1]; oral 4 mg a day): 20% | Nausea Score 1-120 min. ([1]; oral 6 mg a day for 8 days): 3.7 # | Nausea Score 1-120 min. (severity in words) ([1]; oral 6 mg a day): Mild | Retching (incidence) ([1]; oral 6 mg a day): 0% | Vomiting (incidence) ([1]; oral 6 mg a day): 0% | Nausea Score 1-120 min. ([1]; oral 8 mg a day for 8 days): 5** | Nausea Score 1-120 min. (severity in words) ([1]; oral 8 mg a day): Mild | Retching (incidence) ([1]; oral 8 mg a day): 20% | Vomiting (incidence) ([1]; oral 8 mg a day): 20% | minimum effective dose for nausea [1, 2]: 4 mg a day | optimal dose for nausea and vomiting [1, 2]: 6 mg a day

— patent US20240009204A1 (Starton Therapeutics, Inc., priority 2020, published 2024)
